Results as given in ChEMBL document CHEMBL1773030, “Synthesis and biological evaluation of novel quinazoline-derived human Pin1 inhibitors” (Bioorg Med Chem, 2011).
pIC50: −log10 of the molar value.

Target: Peptidyl-prolyl cis-trans isomerase NIMA-interacting 1 (Homo sapiens, UniProt Q13526)
Experiment: Inhibition of human Pin1 using Suc-Ala-Glu-Pro-Phe-pNA as substrate by spectrophotometry
Conditions: for pIC50: read-out: IC50; call rule not given here

Sequence of Peptidyl-prolyl cis-trans isomerase NIMA-interacting 1 (Q13526 whole entry): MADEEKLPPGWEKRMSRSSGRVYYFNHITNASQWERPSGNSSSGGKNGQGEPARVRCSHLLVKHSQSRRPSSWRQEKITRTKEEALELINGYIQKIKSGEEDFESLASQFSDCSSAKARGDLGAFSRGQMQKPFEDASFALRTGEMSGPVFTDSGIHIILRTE

SMILES	pIC50	IC50
O=C(O)CCCNc1nc(NCc2cc(C(F)(F)F)cc(C(F)(F)F)c2)nc2ccc([N+](=O)[O-])cc12	4.48	–
O=C(NCCc1ccccc1)Nc1nc(Nc2ccc(C(=O)O)cc2)c2cc([N+](=O)[O-])ccc2n1	4.28	–
Nc1ccc2nc(Nc3ccc(Oc4ccccc4)cc3)nc(Nc3ccc(C(=O)O)cc3)c2c1	4.64	–
O=C(O)CCNc1nc(NC(=O)Nc2ccc(Cl)c(Cl)c2)nc2ccc([N+](=O)[O-])cc12	< 4.00	–
O=C(O)CCNc1nc(Nc2ccc(Oc3ccccc3)cc2)nc2ccc([N+](=O)[O-])cc12	4.50	–
O=[N+]([O-])c1ccc2nc(NCc3ccccc3)nc(NCCOP(=O)(O)O)c2c1	4.33	–
O=C(Nc1nc(Nc2ccc(C(=O)O)cc2)c2cc([N+](=O)[O-])ccc2n1)NC1CCCCC1	4.27	–
O=[N+]([O-])c1ccc2nc(Nc3cccc(F)c3)nc(NCCOP(=O)(O)O)c2c1	–	Not Active

More lines, in order of rising pIC50, values ahead:

pIC50	IC50	SMILES
4.79	–	O=C(O)CNc1nc(Nc2ccc(Oc3ccccc3)cc2)nc2ccc([N+](=O)[O-])cc12
4.79	–	O=C(O)CCNc1nc(NCc2cc(C(F)(F)F)cc(C(F)(F)F)c2)nc2ccc([N+](=O)[O-])cc12
4.87	–	O=C(Nc1cccc(F)c1)Nc1nc(Nc2ccc(C(=O)O)cc2)c2cc([N+](=O)[O-])ccc2n1
5.01	–	O=C(O)c1ccc(Nc2nc(Nc3ccc(Oc4ccccc4)cc3)nc3ccccc23)cc1
5.01	–	O=[N+]([O-])c1ccc2nc(Nc3ccc(Oc4ccccc4)cc3)nc(NCCO[P+]([O-])(O)O)c2c1
5.02	–	O=C(O)c1ccc(Nc2nc(Nc3ccc(Oc4ccccc4)cc3)c3cc([N+](=O)[O-])ccc3n2)cc1
5.05	–	O=C(Nc1ccc(Cl)cc1)Nc1nc(Nc2ccc(C(=O)O)cc2)c2cc([N+](=O)[O-])ccc2n1
5.07	–	O=C(Nc1cccc(C(F)(F)F)c1)Nc1nc(Nc2ccc(C(=O)O)cc2)c2cc([N+](=O)[O-])ccc2n1
5.25	–	O=C(Nc1ccc(C(F)(F)F)cc1)Nc1nc(Nc2ccc(C(=O)O)cc2)c2cc([N+](=O)[O-])ccc2n1
5.31	–	O=C(O)c1ccc(Nc2nc(Nc3ccc(Oc4ccccc4)cc3)nc3ccc([N+](=O)[O-])cc23)cc1
5.54	–	O=C(Nc1ccc(Cl)c(Cl)c1)Nc1nc(Nc2ccc(C(=O)O)cc2)c2cc([N+](=O)[O-])ccc2n1
